According to US20190352276A1, “INHIBITORS OF BRUTON'S TYROSINE KINASE” (Joint Stock Company "Biocad", priority 2016, published 2019):
Like-named read-outs stand apart in the source and are kept apart here.

Tests used:
[1] = Permeability through the monolayer of Caco-2 cells; assay type: in vitro ADME; settings: human; for Papp A→B at 2 h, 10 μM / Papp B→A at 2 h, 10 μM: 2 h at 37° C.; for efflux ratio at 2 h, 10 μM: read-out: efflux (Papp B-A/Papp A-B)
Procedure, shortened: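 Bidirectional transport measured over 7200 s with 10 μM compound, using an apical buffer at pH 6.5 and a basolateral Hanks/HEPES/glucose buffer at pH 7.4 containing 1% BSA. Monolayers were 21-day Caco-2 cultures verified with Lucifer Yellow. Chamber concentrations quantified chromatographically to derive Papp in both directions and their B-A/A-B efflux ratio.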

[2] = molecular target: T1, recombinant Btk kinase enzyme (Homo sapiens, UniProt Q06187); assay: In vitro inhibition of Btk kinase activity (ADP-Glo); assay type: biochemical; settings: read-out: IC50 kinase BTK
T1 construct: purchased SignalChem B10-10H
T1 sequence (Q06187 whole entry): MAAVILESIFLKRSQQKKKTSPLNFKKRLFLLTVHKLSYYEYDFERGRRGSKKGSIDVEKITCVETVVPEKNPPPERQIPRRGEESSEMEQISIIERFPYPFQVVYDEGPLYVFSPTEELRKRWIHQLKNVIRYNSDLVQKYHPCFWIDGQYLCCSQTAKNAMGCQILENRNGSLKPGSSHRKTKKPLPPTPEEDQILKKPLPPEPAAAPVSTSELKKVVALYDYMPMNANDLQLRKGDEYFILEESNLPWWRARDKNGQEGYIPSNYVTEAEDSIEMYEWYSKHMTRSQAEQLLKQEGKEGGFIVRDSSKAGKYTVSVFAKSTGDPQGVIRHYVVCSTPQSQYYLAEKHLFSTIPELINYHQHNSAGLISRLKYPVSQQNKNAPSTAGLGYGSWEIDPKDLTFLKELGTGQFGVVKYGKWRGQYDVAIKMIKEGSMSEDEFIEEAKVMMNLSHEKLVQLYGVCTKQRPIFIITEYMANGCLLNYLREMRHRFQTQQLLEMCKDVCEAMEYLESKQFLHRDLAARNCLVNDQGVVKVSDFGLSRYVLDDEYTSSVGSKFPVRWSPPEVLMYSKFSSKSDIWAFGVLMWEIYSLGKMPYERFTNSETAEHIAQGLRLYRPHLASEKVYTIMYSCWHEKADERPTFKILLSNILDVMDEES
Experimental: To assess Btk kinase activity described herein, SignalChem kinase system was used. Btk kinase activity was determined in the reaction between recombinant Btk kinase enzyme (SignalChem #B10-10H) and Poly (4:1 Glu, Tyr) peptide substrate in the presence of the inhibitor.
(§1) Staurosporine (Abcam Biochemicals, ab146588) was used as a reference inhibitor and 0.1% DMSO in the reaction buffer—as a negative control. The solution of 0.5 mg/mL peptide substrate and 50 &M ATP in the same buffer were added; the solution was incubated for 180 minutes at 37° C. To detect the amount of ATP taken up during the kinase reaction, the equivalent amount of ADP (from the ADP Glo Detection Kit (Promega, #V9101)) was used according to the protocol. The reaction mixture was equilibrated to room temperature. 25 µL of ADP-Glo Reagent were added into each well; the plate was incubated for 40 minutes. 50 μL of Kinase Detection Reagent were added; the plate was incubated for 30 minutes. The luminescence was measured with multimode plate reader (Tecan Infinite M200Pro, Switzerland). IC50 values were calculated using Magellan 7.2 software (Tecan, Switzerland) approximating experimental points by four-parameter logistic model with the optimization by Levenberg-Marquardt.

[3] = test system: Mino (mantle cell lymphoma); assay: Antiproliferative activity, Mino cells (Alamar Blue); assay type: cell-based; settings: Homo sapiens
Procedure, shortened: (§2)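 A 72 h growth-inhibition assay using Alamar Blue fluorescence as the viability readout, with IC50 taken from a four-parameter logistic curve.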

[4] = test system: HepG2 cells (hepatocellular carcinoma); assay: General cytotoxicity on HepG2 cells (CC50; therapeutic index CC50 HepG2/IC50 Mino); assay type: cell-based; settings: therapeutic index
Procedure, shortened: (§3)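 Alamar Blue viability after 72 h exposure to compounds (final 200 μM–4 μM) gave CC50; HepG2 plated 2*10^4/well in DMEM 24 h beforehand. Therapeutic index expressed as ratio of HepG2 CC50 to Mino antiproliferative IC50.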

[5] = as above; assay type: cell-based; settings: human, HepG2 cells (hepatocellular carcinoma), 72 hours, Alamar Blue
Procedure, shortened: as §3

[6] = molecular target: T2, EGFR (Homo sapiens, UniProt P00533); assay: In vitro kinase panel: EGFR; assay type: biochemical; settings: Table 9 kinase panel
T2 construct: purchased SignalChem E10-11G
T2 sequence (P00533 672-1210 limits assumed): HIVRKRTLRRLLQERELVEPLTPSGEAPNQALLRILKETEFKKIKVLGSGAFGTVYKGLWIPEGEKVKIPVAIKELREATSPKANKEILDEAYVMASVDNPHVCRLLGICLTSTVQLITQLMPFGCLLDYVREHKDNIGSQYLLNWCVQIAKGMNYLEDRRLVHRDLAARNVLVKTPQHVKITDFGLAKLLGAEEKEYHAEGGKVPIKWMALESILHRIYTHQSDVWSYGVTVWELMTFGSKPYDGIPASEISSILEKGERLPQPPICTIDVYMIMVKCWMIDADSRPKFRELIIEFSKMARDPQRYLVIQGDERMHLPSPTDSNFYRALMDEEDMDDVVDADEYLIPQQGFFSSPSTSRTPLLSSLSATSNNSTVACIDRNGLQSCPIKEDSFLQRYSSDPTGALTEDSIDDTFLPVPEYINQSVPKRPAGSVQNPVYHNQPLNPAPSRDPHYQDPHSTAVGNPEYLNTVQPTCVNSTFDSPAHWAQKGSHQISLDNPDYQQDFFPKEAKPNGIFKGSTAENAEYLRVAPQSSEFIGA
Experimental: as §1, with “The measurements were carried out in a 25 μL reaction volume using a 96-well plate (Corning, #3642). The kinase enzyme and inhibitor were pre-incubated for 10 minutes in the reaction buffer containing 25 mM of MOPS (pH 7.2), 12.5 mM of 0-glycerophosphate, 27 mM of MgCl2, 2 mM of MnCl2, 5 mM of EGTA, 2 mM of EDTA, 0.3 mM of DTT, and 1.2 mg/mL of bovine serum albumin. Staurosporine” for “Staurosporine”
For active compounds selected by screening using the target enzyme BTK, the values of IC50 were determined on a kinase panel: EGFR (SignalChem, #E10-11G), ITK (SignalChem, #I13-10G) and TEC (SignalChem, #T03-10G).

[7] = test system: Z-138 (mantle cell lymphoma); assay: Antiproliferative activity, Z-138 cells (Alamar Blue); assay type: cell-based; settings: Homo sapiens
Procedure, shortened: as §2

[8] = Stability in human blood plasma; settings: 10 μM in pooled human blood plasma, incubated 4 hours at 37° C.
[9] = test system: DOHH2 (follicular lymphoma); assay: Antiproliferative activity, DOHH2 cells (Alamar Blue); assay type: cell-based; settings: Homo sapiens, DOHH-2, Table 10, 72 h, average of several tests
Procedure, shortened: as §2

[10] = Chemical stability in artificial gastric fluid (SGF without enzymes); settings: 10 μM in SGF without enzymes, pH=1.4, 37° C.
[11] = Table 10, 72 h, average of several tests
[12] = Table 10, average of several tests

Papp A→B at 2 h, 10 μM [1] [×10⁻⁶ cm/s] | Papp B→A at 2 h, 10 μM [1] [×10⁻⁶ cm/s] | efflux ratio at 2 h, 10 μM [1] | IC50 ([2]; Table 9 kinase panel) [µM] | IC50 ([3]; Table 11, 72 h) [µM] | IC50 [6] [µM] | IC50 ([7]; Table 11, 72 h) [µM] | IC50 ([2]; Table 8, ADP-Glo) [µM] | IC50 [3, 11] [µM] | Amount of substance in the sample, % (stability in human blood plasma) [8] [%] | IC50 [9] [µM] | IC50 [7, 11] [µM] | Amount of substance in the sample in % (chemical stability) [10] [%] | Compound | CC50 (HepG2)/IC50 (Mino) ([4]; Table 11) | CC50 at 72 h ([5]; Table 11) [µM] | CC50 (HepG2)/IC50 (Mino) ([4]; Table 10) | CC50 at 72 h [5, 12] [µM]
25.8 | 12 | 0.4 | 0.00116 | 11.6 | 0.127 | 21.2 | – | – | – | – | – | – | C=CC(=O)N1CCC[C@@H](n2nc(-c3ccc(Oc4ccncc4)cc3)c3c(N)ncc(C#N)c32)C1 [BCD-BTK-134, (R)-1-(1-acryloylpiperidin-3-yl)-4-amino-3-(4-(pyridin-4-yloxy)phenyl)-1H-pyrazolo[4,3-c]pyridin-7-carbonitrile] | 5.80 | 64 | – | –
6.51 | 2.87 | 0.44 | – | – | – | – | 0.0174 | 8.93 | 96.8 | 3.79 | 11.1 | 100 | C=CC(=O)N1CCC[C@@H](n2nc(-c3ccc(Oc4cccnc4C#N)cc3)c3c(N)ncc(Cl)c32)C1 [BCD-BTK-236, 3-(4-{4-amino-7-chloro-1-[(3R)-1-(prop-2-enoyl)piperidin-3-yl]-1H-pyrazolo[4,3-c]pyridin-3-yl}phenoxy) pyridine-2-carbonitrile] | – | – | 3.03 | 27.1
– | – | – | – | – | 0.0252 | – | 0.01 | 21.3 | – | 11.5 | 15.5 | – | C=CC(=O)N1CCC[C@@H](n2nc(-c3ccc(Oc4ccncc4)cc3)c3c(N)nccc32)C1 [BCD-BTK-241, (R)-1-(1-acryloylpiperidin-3-yl)-4-amine-3-(4-(pyridin-4-yloxy)phenyl)-1H-pyrazolo[4,3-c]pyridine] | – | – | 2.13 | 45.4
9.5 | 2.2 | 0.23 | – | – | – | – | 0.0132 | 3.61 | 87.2 | 4.99 | 12.6 | 100 | C=CC(=O)N1CC[C@H](n2nc(-c3ccc(Oc4ccncc4)cc3)c3cncc(Cl)c32)C1 [BCD-BTK-266, (S)-1-(3-(7-chloro-3-(4-(pyridin-4-yloxy)phenyl)-1H-pyrazolo[4,3-c]pyridin-1-yl)pyrrolidin-1-yl)prop-2-en-1-one] | – | – | 3.33 | 12
6.3 | 1.1 | 0.18 | – | – | – | – | 0.0548 | 6.83 | – | 5.23 | 14.9 | 100 | C=CC(=O)N1CC[C@@H](n2nc(-c3ccc(Oc4ccncc4)cc3)c3cncc(Cl)c32)C1 [BCD-BTK-272, (R)-1-(3-(7-chloro-3-(4-(pyridin-4-yloxy)phenyl)-1H-pyrazolo[4,3-c]pyridin-1-yl)pyrrolidin-1-yl)prop-2-en-1-one] | – | – | 2.57 | 17.6

The next lines start with the compound.

Compound | Papp A→B at 2 h, 10 μM [1] [×10⁻⁶ cm/s] | Papp B→A at 2 h, 10 μM [1] [×10⁻⁶ cm/s] | efflux ratio at 2 h, 10 μM [1] | IC50 ([2]; Table 9 kinase panel) [µM] | IC50 ([3]; Table 11, 72 h) [µM] | IC50 [6] [µM] | IC50 ([7]; Table 11, 72 h) [µM] | IC50 ([2]; Table 8, ADP-Glo) [µM] | IC50 [3, 11] [µM] | Amount of substance in the sample, % (stability in human blood plasma) [8] [%] | IC50 [9] [µM] | IC50 [7, 11] [µM] | Amount of substance in the sample in % (chemical stability) [10] [%] | CC50 (HepG2)/IC50 (Mino) ([4]; Table 11) | CC50 at 72 h ([5]; Table 11) [µM] | CC50 (HepG2)/IC50 (Mino) ([4]; Table 10) | CC50 at 72 h [5, 12] [µM]
C=CC(=O)N1CCC[C@@H](n2nc(-c3ccc(Oc4ccncc4C(N)=O)cc3)c3cncc(Cl)c32)C1 [BCD-BTK-203, (R)-4-(4-(1-(1-acryloylpiperidin-3-yl)-7-chloro-1H-pyrazolo[4,3-c]pyridin-3-yl)phenoxy)nicotinamide] | 9.31 | 8.4 | 0.9 | – | – | – | – | 1.1 | 13.6 | 84.7 | 14 | 16 | – | – | – | 4.55 | 61.9
C=CC(=O)N1CCC[C@@H](n2nc(-c3ccc(Oc4cccnc4C#N)cc3)c3cncc(Cl)c32)C1 [BCD-BTK-218, 3-(4-{7-chloro-1-[1-(prop-2-enoyl)piperidin-3-yl]-1H-pyrazolo[4,3-c]pyridin-3-yl}phenoxy)pyridine-2-carbonitrile] | 20.2 | 17.4 | 0.86 | – | – | – | – | 0.0555 | 1.1 | 92.0 | 3.55 | 8.58 | – | – | – | 23.92 | 26.2
C=CC(=O)N1CCC[C@@H](n2nc(-c3cnc(C(=O)Nc4ccccn4)nc3)c3cncc(Cl)c32)C1 [BCD-BTK-229, (R)-5-(1-(1-acryloylpiperidin-3-yl)-7-chloro-1H-pyrazolo[4,3-c]pyridin-3-yl)-N-(pyridin-2-yl)pyrimidine-2-carboxamide] | 10.7 | 12.2 | 1.14 | – | – | – | – | 0.0439 | 36.3 | 83.5 | 41.2 | 77.1 | 99.8 | – | – | >2.75 | > 100
C=CC(=O)N1CCC[C@@H](n2nc(-c3ccc(C(=O)Nc4ccc(F)cn4)cc3)c3c(N)ncc(Cl)c32)C1 [BCD-BTK-237, 4-{4-amino-7-chloro-1-[(3R)-1-(prop-2-enoyl)piperidin-3-yl]-1H-pyrazolo[4,3-c]pyridin-3-yl}-N-(5-fluoropyridin-2-yl)benzamide] | 6.9 | 3.5 | 0.5 | – | – | – | – | 0.0126 | 6.25 | – | 3.25 | 6.99 | – | – | – | 4.54 | 28.4
C=CC(=O)N1CCC[C@@H](n2nc(-c3ccc(C(=O)Nc4ccccn4)cc3)c3c(N)ncc(Cl)c32)C1 [BCD-BTK-238, 4-{4-amino-7-chloro-1-[(3R)-1-(prop-2-enoyl)piperidin-3-yl]-1H-pyrazolo[4,3-c]pyridin-3-yl}-N-(pyridin-2-yl)benzamide] | 6.75 | 4.78 | 0.71 | – | – | – | – | 0.0189 | 10.6 | – | 4.05 | 9.44 | 100 | – | – | 2.34 | 24.8
